# According to publication PMC6511062, “Preclinical candidate for the treatment of visceral leishmaniasis that acts through proteasome inhibition” (Proceedings of the National Academy of Sciences of the …, 2019):
# Test system: L. donovani axenic amastigotes
# Assay: Axenic amastigote rate-of-kill assay
# Type: cell-based, Leishmania donovani
# Method: T. cruzi4, Leishmania donovani axenic amastigote, cidal axenic amastigote and intra-macrophage drug sensitivity assays were conducted as previously described5,6.
# The rate of kill of compound 8 was determined in axenic amastigotes using the previously described cidal axenic assay5, with one minor modification. Instead of a single readout at 72 h, multiple identical plates were used and read at different time points (24, 48, 72 h). Rate of kill curves showing the luminescence signal at each time point for each concentration were plotted.
# 5. Intrinsic clearance (CLint)
# Test compound (0.5 µM) was incubated with female CD1 mouse liver microsomes (Xenotech LLC TM; 0.5 mg/mL 50 mM potassium phosphate buffer, pH7.4) and the reaction started with addition of excess NADPH (8 mg/mL 50 mM potassium phosphate buffer, pH7.4). Immediately, at time zero, then at 3, 6, 9, 15 and 30 minutes an aliquot (50 µL) of the incubation mixture was removed and mixed with acetonitrile (100 µL) to stop the reaction. […]
# XLfit (idbs, UK) was used to calculate the exponential decay and consequently the rate constant (k) from the ratio of peak area of test compound to internal standard at each time-point. The rate of intrinsic clearance (CLint) of each test compound was then calculated using the following calculation: […]
# Amastigote levels (as RLU, relative luminescence units) for each tested concentration plotted against time. […]
smiles,measurement,setting,value
O=C(Nc1ccc(F)c(-c2ccn3c(N4CCOCC4)cnc3n2)c1)N1CCCC1 [Compound 8],minimum concentration inducing parasite cell death,after 72 h,620 nM
same,time to kill,as compound concentrations were increased,48 h
